Assay results from patent US20220290095A1, “Bifidobacterium breve CCFM1025, Food Fermented Thereby and Application Thereof” (Jiangnan University, priority 2018, published 2022).

Assays:
[1] = system: 5-HT in the serum; assay: 5-HT in serum of depressed mice (ELISA); assay type: in vivo, C57BL/6J mice; conditions: concluded from serum 5-HT, FIG. 4
Experimental: (§1) 32 6-week-old male C57BL/6J mice were selected. After one week of adaptation to the environment, the mice were randomly divided into four groups according to body weight: a control group, a model group, a fluoxetine intervention group, and a CCFM1025 intervention group, each containing 8 mice.
(§2) Chronic unpredictable stress depression mouse model: 1-2 kinds of stimuli were randomly performed every day, and the performance time of stimuli every day was determined randomly to avoid the circadian rhythm. Each method was used for not more than three times, and the stimuli were performed for five weeks. The stimuli include: (1) fasting for 24 h; (2) water deprivation+empty bottle stimulus for 24 h; (3) tail pinching for 3 min; (4) wet padding for 24 h; (5) immobilization for 1-2 h; (6) […] for 24 h; (7) continuous lighting for 24 h; (8) no padding for 24 h; (9) forced swim for 15 min; and (10) separation for 24 h.
Lactic acid bacteria gavage: the activated second generation of Bifidobacterium CCFM1025 was taken and cultured at 37° C. for 24 h, and the bacteria were collected after centrifugation at 4° C. and 8000 r/min for 3 min. […]
The serum collected in Example 3 was taken and the content of 5-HT in the serum was measured using an ELISA kit. […]

[2] = system: depressed mice (chronic unpredictable stress depression mouse model); assay: Depression-like behaviors of depressed mice (behavioral tests overall); assay type: in vivo, C57BL/6J mice
Experimental: as §1, §2
Lactic acid bacteria gavage: the activated second generation of Bifidobacterium CCFM1025 was taken and cultured at 37° C. for 24 h, and the bacteria were collected after centrifugation at 4° C. and 8000 r/min for 3 min. The supernatant was discarded and the bacteria were resuspended with 5% sterilized skim milk to make the concentration of lactic acid bacteria reach 5×10^9 CFU/mL. The gavage volume is 0.2 mL/mouse/day. […]

## CNCCC(Oc1ccc(C(F)(F)F)cc1)c1ccccc1 (centres unmarked) [fluoxetine]
[1]
  intestinal peristalsis / intestinal function: cannot improve the intestinal function
[2]
  depression-like behaviors / antidepressant effect: has an antidepressant effect
